{
  "source": "patent US8895069B2",
  "about": "“Drug delivery system using hyaluronic acid-peptide conjugate micelle” (Postech Academy-Industry Foundation, priority 2011, dated 2014)",
  "key": {"[1]": {"tested_on": "vascular hyperpermeability due to diabetic retinopathy", "test": "Vascular hyperpermeability due to diabetic retinopathy, genistein-loaded micelle (Experimental Example 14)", "format": "in vivo, Sprague Dawley (SD) male rats", "description": "First, each rat was injected intraperitonially with 60 mg/kg of streptozotocin dissolved in 10 mM citrate buffer at pH 4.5 in order for diabetes to be induced. In three days after the injection of streptozotocin, the rat was determined to develop diabetes when its serum concentration of glucose was at least 300 mg/dL. In a week after the injection of streptozotocin, 10 μL of each sample solution was injected into the vitroeus body."}, "[2]": {"tested_on": "HUVEC (Human Umbilical Vein Endothelial Cell)", "test": "HUVEC proliferation (MTT)", "format": "cell-based", "description": "An endothelial cell, HUVEC (Human Umbilical Vein Endothelial Cell) (innopharmascreen co. ltd., Korea) was incubated in a EGM®^2 culture medium (Lonza) and then 100 μL of the cell solution with a concentration of 2×10^4/ml was distributed per each well and incubated in a 5% CO2 cultivator at 37° C. for 16 hours. After 16 hours, the culture medium was replaced and seven types of samples were treated. Among the seven types of samples were the control group as treated only with a culture medium, and the groups treated with 50 μM, 100 μM, and 200 μM of genistein solutions and the solutions of the genistein-loaded hyaluronic acid-peptide conjugate of Example 1 comprising 50 μM, 100 μM, and 200 μM of genistein, respectively. 10 μL of each sample and 100 μL of the culture medium were mixed and treated. After the samples were treated, they were incubated in 5% CO2 incubator at 37° C. and the culture media with the samples being mixed therein […] once a day. After three days, the culture media were removed and the samples were treated with 110 μL of an MTT solution (Amresco Co. (Solon, Ohio)), and incubated in a cultivator at 37° C. for two hours and then 50 μL of DMSO was added thereto to measure a light absorbency at 540 nm. The light absorbance as measured was compared with the light absorbance of the control group and the degree of the cell growth was calculated."}, "[3]": {"tested_on": "corneal neovascularization", "test": "Corneal neovascularization, genistein-loaded micelle (Experimental Example 13)", "format": "in vivo, Albino Sprague Dawley male rats"}, "[4]": {"tested_on": "corneal neovascularization", "test": "Corneal neovascularization after silver nitrate cauterization (Experimental Example 8)", "format": "in vivo, Albino Sprague Dawley male rats", "conditions": "rat cornea, subconjunctival 20 μL; Avastin 10 mg/ml, peptide and conjugate […] peptide; NV control 90.8±5%", "description": "All animal tests including this experiment were conducted in compliance with the guidelines of the Catholic University of Korea and the principles of laboratory animal care; NIH publication No. 85-23 revised in 1985.\nThe rat was put under anesthesia by an intra-peritoneal injection of a mixed solution of 20 mg/kg of ketamine hydrochloride and 2.5 mg/kg of xylazine hydrochloride. […] In 3 days after the cauterization, subconjunctival administration was conducted with 20 μL of each of 4 sample solutions (a normal control group, NV control (neovascularization control: a control group wherein angiogenesis was made to occur and no drug was treated thereon), a solution comprising Avastin (Roche) dissolved in PBS at a concentration of 10 mg/ml, a solution comprising anti-Flt1 peptide (GGNQWFI) (SEQ ID NO: 3) dissolved in PBS at a concentration of 2.5 mg/ml, and a solution comprising the hyaluronic acid-peptide conjugate with a lower peptide concentration obtained from Preparation Example 3 as dissolved in PBS at a concentration of 2.5 mg/ml based on the content of anti-Flt1 peptide). […] The obtained images were subjected to quantitative analysis with Image J program (Ver. 1.38, National Institute of Health, MD)."}, "[5]": {"conditions": "genistein as dispersed in water, 6.2 mg/ml"}, "[6]": {"conditions": "genistein as dissolved in DMSO, 6.2 mg/ml"}},
  "data": [
    {"compound": "O=c1c(-c2ccc(O)cc2)coc2cc(O)cc(O)c12", "note": "[genistein]", "values": [
      {"measurement": "average intensity of the fluorescence of retina relative to normal group (1)", "setting": "[1]; [5]", "result": "2.38±0.20"},
      {"measurement": "average intensity of the fluorescence of retina relative to normal group (1)", "setting": "[1]; [6]", "result": "2.00±0.16"},
      {"measurement": "HUVEC growth inhibition, comparison of genistein alone with micelle", "setting": "[2]; genistein alone at 200 uM versus genistein-loaded micelle at 50 uM", "result": "inferior to the results obtained from the group treated with the genistein-loaded micelle at its lowest concentration (50 uM)"},
      {"measurement": "HUVEC cell number relative to control group (100%)", "setting": "[2]; genistein concentration 100 μm (so in the source), 3 days, MTT", "result": "70.5±3.5", "unit": "%"},
      {"measurement": "average ratio of the neovascular area", "setting": "[3]; [5]", "result": 68, "unit": "%"},
      {"measurement": "average ratio of the neovascular area", "setting": "[3]; [6]", "result": 38, "unit": "%"}
    ]},
    {"compound": "Avastin: Avastin (Roche), positive control", "values": [
      {"measurement": "average intensity of the fluorescence of retina relative to normal group (1)", "setting": "[1]; normal = 1, negative control 2.54±0.20, Avastin 10 mg/ml, micelle 3.2 mg/ml peptide, four weeks after streptozotocin", "result": "1.49±0.17"},
      {"measurement": "average ratio of the neovascular area", "setting": "[3]; rat cornea, samples in PBS: Avastin 10 mg/ml, conjugate and micelle 3.2 mg/ml peptide, control group 86%", "result": 23, "unit": "%"},
      {"measurement": "average ratio of the neovascular area", "setting": "[4]", "result": "35.4±6.6", "unit": "%"}
    ]}
  ]
}
